According to patent US12371428B2 (Exelixis, Inc., priority 2019, dated 2025):
Where a name gives a salt, the structure may show the parent alone. Read-outs that look alike come from different tables or passages of the source.

What was measured:
[1] = target: Human MET (residues 956-1390) (Homo sapiens (Human), UniProt P08581); experiment: Human Met kinase assay, HTRF KinEase (Example D-2); format: biochemical; details: read-out: c-Met IC50
Summary of the method: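 IC50 values come from a 4-parameter logistic fit of the […] fluorescence ratio, set between DMSO (100%) and reference compound at 1 μM (0%). Reactions held MET 956-1390 at 0.1 ng/well, ATP at Km, biotinylated peptide, 5 mM MgCl2, 1 mM MnCl2, 1 mM DTT and 3% DMSO, and ran 40 min at room temperature before streptavidin-XL665/Eu-antibody detection.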

[2] = target: Human KDR (residues 790-1356) (Homo sapiens (Human), UniProt P35968); experiment: Human KDR kinase assay, HTRF KinEase (Example B-2); format: biochemical
Human KDR (residues 790-1356), sequence (P35968 790-1356): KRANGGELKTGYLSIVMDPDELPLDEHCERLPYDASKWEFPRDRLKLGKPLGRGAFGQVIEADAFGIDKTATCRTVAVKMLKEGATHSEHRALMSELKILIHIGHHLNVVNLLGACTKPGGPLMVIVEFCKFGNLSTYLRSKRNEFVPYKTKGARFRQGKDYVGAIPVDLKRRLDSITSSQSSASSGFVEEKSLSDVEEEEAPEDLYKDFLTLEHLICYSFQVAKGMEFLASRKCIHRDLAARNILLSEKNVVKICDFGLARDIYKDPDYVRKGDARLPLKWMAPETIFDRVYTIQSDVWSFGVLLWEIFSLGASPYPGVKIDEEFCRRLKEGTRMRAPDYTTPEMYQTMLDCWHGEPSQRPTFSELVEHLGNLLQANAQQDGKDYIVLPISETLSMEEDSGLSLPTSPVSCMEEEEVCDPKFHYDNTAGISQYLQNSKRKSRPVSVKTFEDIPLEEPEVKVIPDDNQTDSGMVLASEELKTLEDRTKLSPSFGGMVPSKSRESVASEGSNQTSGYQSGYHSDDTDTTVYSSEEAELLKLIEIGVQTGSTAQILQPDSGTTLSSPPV
Method: Kinase activity and compound inhibition were also investigated using the HTRF® KinEase assay (Cisbio Cat #62TKOPEB) per manufacturer's instructions. In short, compounds were delivered in 300 nL volumes at 10 different concentrations in DMSO (3% final) to empty 384-well assay plates (Corning cat #3824). A mixture of enzyme, […] biotynlated peptide substrate, and buffer in 10 μL volume was added. The assay was started upon the addition of ATP (at Km). The 10 μL reaction was incubated at room temperature. The reaction was stopped upon the addition of detection buffer containing streptavidin-XL665 ([…]) and TK antibody-Eu3+([…]). After a 60 min incubation at room temperature, the fluorescence at 665 nm and 620 nm was read on an Envision microplate reader (Perkin Elmer).
Kinase activity normalized to DMSO (100% activity) and reference compound at […] and (0% activity) was calculated using the fluorescence ratio […]. IC50 values were calculated by nonlinear regression analysis using a 4-parameter logistic curve fit in ActivityBase XE (IDBS).
Example B-2: Human KDR (residues 790-1356; CarnaBio, 0.1 ng/well) was also incubated with enzymatic buffer (Cisbio) supplemented with 5 mM MgCl2, 1 mM MnCl2, and 1 mM DTT. The mixture was added to the pre-plated compounds. The reaction was initiated upon addition of ATP at Km (4.0 μM). The reaction was incubated at room temperature for 40 min and stopped upon the addition of SA-XL665 and TK-antibody both diluted in EDTA-containing kinase detection buffer (Cisbio). The kinase activity was calculated as stated above and the IC50 values were reported.

[3] = target: Human MER (residues 528-999) (Homo sapiens (Human), UniProt Q12866); experiment: Human Mer kinase assay, HTRF KinEase (Example C-2); format: biochemical
Human MER (residues 528-999), sequence (Q12866 528-999): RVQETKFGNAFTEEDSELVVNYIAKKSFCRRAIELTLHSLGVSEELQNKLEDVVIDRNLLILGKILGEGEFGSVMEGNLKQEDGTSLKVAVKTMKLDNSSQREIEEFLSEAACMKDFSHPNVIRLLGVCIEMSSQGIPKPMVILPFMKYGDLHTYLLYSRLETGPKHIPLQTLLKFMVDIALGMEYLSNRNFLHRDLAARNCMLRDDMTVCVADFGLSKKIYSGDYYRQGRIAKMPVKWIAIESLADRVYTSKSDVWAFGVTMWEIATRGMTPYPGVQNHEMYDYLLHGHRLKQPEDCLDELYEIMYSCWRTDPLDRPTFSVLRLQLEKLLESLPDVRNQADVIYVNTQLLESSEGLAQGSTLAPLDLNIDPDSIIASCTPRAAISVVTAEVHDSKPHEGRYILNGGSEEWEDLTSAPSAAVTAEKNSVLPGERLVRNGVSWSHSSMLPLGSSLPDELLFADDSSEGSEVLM
Summary of the method: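 IC50 values from 10 concentrations via 4-parameter logistic fit of […], with DMSO as 100% and 1 μM reference compound as 0% activity. Reaction: MER kinase domain 528-999, 1 ng/well, 40 μM ATP (Km), biotin peptide, 5 mM MgCl2, 1 mM DTT, 3% DMSO, room temperature 60 min; HTRF streptavidin-XL665/Eu-antibody detection.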

[4] = target: Mer (phospho-Mer, MERTK-transfected 293A cells) (Homo sapiens (Human), UniProt Q12866); experiment: Mer autophosphorylation ELISA in transient transfected 293A cells (Example H); format: cell-based; details: cellular activity; Mer autophosphorylation ELISA in transient transfected 293A cells
Mer (phospho-Mer, MERTK-transfected 293A cells), sequence (Q12866 21-999): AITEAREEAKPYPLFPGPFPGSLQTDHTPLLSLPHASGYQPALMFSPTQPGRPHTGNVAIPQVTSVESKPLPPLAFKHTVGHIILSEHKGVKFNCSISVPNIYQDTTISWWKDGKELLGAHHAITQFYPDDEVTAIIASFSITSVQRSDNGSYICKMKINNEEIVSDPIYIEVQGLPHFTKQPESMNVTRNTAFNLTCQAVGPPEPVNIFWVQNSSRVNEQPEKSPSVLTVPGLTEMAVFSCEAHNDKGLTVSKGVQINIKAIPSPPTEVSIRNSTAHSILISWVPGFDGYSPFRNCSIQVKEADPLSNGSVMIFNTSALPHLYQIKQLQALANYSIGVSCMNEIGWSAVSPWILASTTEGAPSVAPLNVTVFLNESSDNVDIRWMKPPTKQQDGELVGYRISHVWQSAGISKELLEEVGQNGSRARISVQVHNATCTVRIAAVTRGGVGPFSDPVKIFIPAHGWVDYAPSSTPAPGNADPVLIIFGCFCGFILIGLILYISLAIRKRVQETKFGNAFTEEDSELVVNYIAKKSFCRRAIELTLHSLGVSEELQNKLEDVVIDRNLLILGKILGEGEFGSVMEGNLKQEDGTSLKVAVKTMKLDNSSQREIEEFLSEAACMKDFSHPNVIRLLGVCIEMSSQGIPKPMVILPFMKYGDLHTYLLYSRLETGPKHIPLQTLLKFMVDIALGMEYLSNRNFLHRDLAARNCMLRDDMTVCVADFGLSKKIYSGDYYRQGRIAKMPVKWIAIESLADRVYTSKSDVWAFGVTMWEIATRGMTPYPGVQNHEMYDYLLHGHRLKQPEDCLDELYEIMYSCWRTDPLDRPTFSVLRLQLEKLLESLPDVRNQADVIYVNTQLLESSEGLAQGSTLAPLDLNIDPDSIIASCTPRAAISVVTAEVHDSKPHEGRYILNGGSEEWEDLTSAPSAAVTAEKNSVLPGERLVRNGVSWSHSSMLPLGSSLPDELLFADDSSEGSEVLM
Summary of the method: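 IC50 from 4-parameter logistic fit of phospho-Mer levels, quantified by ELISA against a phospho-Mer standard in lysates of MERTK-transfected 293A cells. Cells exposed 1 h to 8-point serial dilutions, serum-free, 0.3% DMSO; controls: DMSO (100%) and reference inhibitor (0%).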

[5] = protocol of Example D-2 (other compounds)
[6] = protocol of Example B-2 (other compounds)
[7] = protocol of Example C-2 (other compounds)

Human MET (residues 956-1390), sequence (P08581 956-1390): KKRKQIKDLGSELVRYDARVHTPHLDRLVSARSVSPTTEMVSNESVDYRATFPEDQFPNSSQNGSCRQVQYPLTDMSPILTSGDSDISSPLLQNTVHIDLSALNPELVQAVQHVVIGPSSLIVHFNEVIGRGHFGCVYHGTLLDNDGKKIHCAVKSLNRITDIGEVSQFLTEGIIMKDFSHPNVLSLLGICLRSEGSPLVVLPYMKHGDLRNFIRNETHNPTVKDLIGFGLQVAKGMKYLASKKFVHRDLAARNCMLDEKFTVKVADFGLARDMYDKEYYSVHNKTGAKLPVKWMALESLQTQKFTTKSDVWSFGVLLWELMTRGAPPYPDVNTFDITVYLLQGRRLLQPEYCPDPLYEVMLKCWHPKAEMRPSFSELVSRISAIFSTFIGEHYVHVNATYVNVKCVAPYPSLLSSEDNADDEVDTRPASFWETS

In the case of `COc1ccc(-c2cn(C)cc(C(=O)Nc3ccc(Oc4ccnc5cc(OC)c(OC)nc45)c(F)c3)c2=O)cc1` [Compound 34, N-[4-[(6,7-Dimethoxy-1,5-naphthyridin-4-yl)oxy]-3-fluorophenyl]-5-(4-methoxyphenyl)-1-methyl-4-oxopyridine-3-carboxamide hydrochloride], the IC50 [1, 5] is reported as 100 to 300 nM, the IC50 [2, 6] is reported as < 100 nM and the IC50 [3, 7] is reported as < 100 nM.

With `COc1ccc2nccc(Oc3ccc(NC(=O)c4c[nH]c(=O)n(-c5ccc(F)cc5)c4=O)cc3F)c2n1` [Compound 103, N-[3-Fluoro-4-[(6-methoxy-1,5-naphthyridin-4-yl)oxy]phenyl]-3-(4-fluorophenyl)-2,4-dioxo-1H-pyrimidine-5-carboxamide] the IC50 [1, 5] was < 100 nM, the IC50 [2, 6] was > 300 nM and the IC50 [3, 7] was < 100 nM.

For `Cc1ncc(C(=O)Nc2ccc(Oc3ccnc4cc(C(F)(F)F)cnc34)cc2)c(O)c1-c1ccc(F)cc1` [Compound 150, 5-(4-Fluorophenyl)-4-hydroxy-6-methyl-N-[4-[[7-(trifluoromethyl)-1,5-naphthyridin-4-yl]oxy]phenyl]pyridine-3-carboxamide], the IC50 [1, 5] was < 100 nM, the IC50 [2, 6] was > 300 nM and the IC50 [3, 7] was < 100 nM.

For `Cc1c(-c2ccc(F)cc2)c(=O)c(C(=O)Nc2ccc(Oc3ccnc4cc(C(F)(F)F)cnc34)c(F)c2)cn1C(C)C` [Compound 152, 5-(4-Fluorophenyl)-N-[3-fluoro-4-[[7-(trifluoromethyl)-1,5-naphthyridin-4-yl]oxy]phenyl]-6-methyl-4-oxo-1-propan-2-ylpyridine-3-carboxamide], the IC50 [1, 5] was > 300 nM, the IC50 [2, 6] was > 300 nM and the IC50 [3, 7] was > 300 nM.

With `CC(C)n1cc(C(=O)Nc2ccc(Oc3ccnc4cc(F)cnc34)c(F)c2)c(=O)c(-c2ccc(F)cc2)c1` [Compound 161, N-[3-Fluoro-4-[(7-fluoro-1,5-naphthyridin-4-yl)oxy]phenyl]-5-(4-fluorophenyl)-4-oxo-1-propan-2-ylpyridine-3-carboxamide] the IC50 [1, 5] was < 100 nM, the IC50 [2, 6] was < 100 nM and the IC50 [3, 7] was < 100 nM.

In the case of `COc1cnc2c(Oc3ccc(NC(=O)c4cn(C(C)(C)C)c(C)c(-c5ccc(F)cc5)c4=O)cc3)ccnc2c1` [Compound 165, 1-tert-Butyl-5-(4-fluorophenyl)-N-[4-[(7-methoxy-1,5-naphthyridin-4-yl)oxy]phenyl]-6-methyl-4-oxopyridine-3-carboxamide], the IC50 [1, 5] is reported as < 100 nM, the IC50 [2, 6] is reported as > 300 nM and the IC50 [4] is reported as < 100 nM. The IC50 [3, 7] was < 100 nM.

In the case of `COc1ccc2nccc(Oc3ccc(NC(=O)c4c[nH]c(=O)n(-c5ccc(F)cc5)c4=O)cc3)c2n1` [Compound 339, 3-(4-fluorophenyl)-N-[4-[(6-methoxy-1,5-naphthyridin-4-yl)oxy]phenyl]-2,4-dioxo-1H-pyrimidine-5-carboxamide], the IC50 [1, 5] is reported as 100 to 300 nM, the IC50 [2, 6] is reported as > 300 nM and the IC50 [3, 7] is reported as 100 to 300 nM.

With `COc1cc2nccc(Oc3ccc(NC(=O)c4cnc(NC(=O)OC(C)(C)C)n(-c5ccc(F)cc5)c4=O)cc3F)c2nc1OC` [Compound 344, tert-butyl N-[5-[[4-[(6,7-dimethoxy-1,5-naphthyridin-4-yl)oxy]-3-fluorophenyl]icarbamoyl]-1-(4-fluorophenyl)-6-oxopyrimidin-2-yl]carbamate] the IC50 [1, 5] was 100 to 300 nM, the IC50 [2, 6] was 100 to 300 nM and the IC50 [3, 7] was < 100 nM.

With `CCOc1nc(C)c(-c2ccc(F)cc2)c(O)c1C(=O)Nc1ccc(Oc2ccnc3cc(OC)c(OC)nc23)c(F)c1` [Compound 365, N-[4-[(6,7-dimethoxy-1,5-naphthyridin-4-yl)oxy]-3-fluorophenyl]-2-ethoxy-5-(4-fluorophenyl)-4-hydroxy-6-methylpyridine-3-carboxamide] the IC50 [1, 5] was > 300 nM, the IC50 [2, 6] was > 300 nM and the IC50 [3, 7] was 100 to 300 nM.

For `COc1cc2nccc(Oc3ccc(NC(=O)c4c(C)nc(OC)c(-c5ccc(F)cc5)c4OC)cc3F)c2nc1OC` [Compound 444, N-[4-[(6,7-dimethoxy-1,5-naphthyridin-4-yl)oxy]-3-fluorophenyl]-5-(4-fluorophenyl)-4,6-dimethoxy-2-methylpyridine-3-carboxamide], the IC50 [1, 5] was > 300 nM, the IC50 [2, 6] was > 300 nM and the IC50 [3, 7] was > 300 nM.

For `C=C(C)c1cc2nccc(Oc3ccc(NC(=O)c4cnc(C)c(-c5ccc(F)cc5C)c4O)cc3F)c2nc1OC` [Compound 449, N-[3-fluoro-4-[(6-methoxy-7-prop-1-en-2-yl-1,5-naphthyridin-4-yl)oxy]phenyl]-5-(4-fluoro-2-methylphenyl)-4-hydroxy-6-methylpyridine-3-carboxamide], the IC50 ([1]; protocol of Example D-2) was > 300 nM, the IC50 ([2]; protocol of Example B-2) was > 300 nM and the IC50 ([3]; protocol of Example C-2) was < 100 nM.

In the case of `C=C(C)c1cc2nccc(Oc3ccc(NC(=O)c4cnc(C)c(-c5ccc(F)cc5)c4O)cc3F)c2nc1OC` [Compound 452, N-[3-fluoro-4-[(6-methoxy-7-prop-1-en-2-yl-1,5-naphthyridin-4-yl)oxy]phenyl]-5-(4-fluorophenyl)-4-hydroxy-6-methylpyridine-3-carboxamide], the IC50 ([1]; protocol of Example D-2) is reported as > 300 nM, the IC50 ([2]; protocol of Example B-2) is reported as 100 to 300 nM and the IC50 ([3]; protocol of Example C-2) is reported as < 100 nM.

For `C=C(C)c1cc2nccc(Oc3ccc(NC(=O)c4c(C)nc(C)c(-c5ccc(F)cc5)c4O)cc3F)c2nc1OC` [Compound 453, N-[3-fluoro-4-[(6-methoxy-7-prop-1-en-2-yl-1,5-naphthyridin-4-yl)oxy]phenyl]-5-(4-fluorophenyl)-4-hydroxy-2,6-dimethylpyridine-3-carboxamide], the IC50 ([1]; protocol of Example D-2) was > 300 nM, the IC50 ([2]; protocol of Example B-2) was 100 to 300 nM and the IC50 ([3]; protocol of Example C-2) was < 100 nM.

In the case of `COc1cc2nccc(Oc3ccc(NC(=O)c4cn(C(C)C)c(C)c(-c5ccc(F)cc5)c4=O)cc3F)c2nc1N(C)C` [Compound 583, N-[4-[[6-(Dimethylamino)-7-methoxy-1,5-naphthyridin-4-yl]oxy]-3-fluorophenyl]-5-(4-fluorophenyl)-6-methyl-4-oxo-1-propan-2-ylpyridine-3-carboxamide], the IC50 ([1]; protocol of Example D-2) is reported as < 100 nM, the IC50 ([2]; protocol of Example B-2) is reported as > 300 nM and the IC50 ([3]; protocol of Example C-2) is reported as < 100 nM.

For `COc1nc2c(Oc3ccc(NC(=O)c4cnc(C)c(-c5ccc(F)cc5)c4O)cc3F)ccnc2cc1C(C)C` [Compound 590, N-[3-Fluoro-4-[(6-methoxy-7-propan-2-yl-1,5-naphthyridin-4-yl)oxy]phenyl]-5-(4-fluorophenyl)-4-hydroxy-6-methylpyridine-3-carboxamide], the IC50 ([1]; protocol of Example D-2) was > 300 nM, the IC50 ([2]; protocol of Example B-2) was > 300 nM and the IC50 ([3]; protocol of Example C-2) was < 100 nM.

In the case of `COc1nc2c(Oc3ccc(NC(=O)c4cnc(C)c(-c5ccc(F)cc5C)c4O)cc3F)ccnc2cc1C(C)C` [Compound 591, N-[3-Fluoro-4-[(6-methoxy-7-propan-2-yl-1,5-naphthyridin-4-yl)oxy]phenyl]-5-(4-fluoro-2-methylphenyl)-4-hydroxy-6-methylpyridine-3-carboxamide], the IC50 ([1]; protocol of Example D-2) is reported as > 300 nM, the IC50 ([2]; protocol of Example B-2) is reported as > 300 nM and the IC50 ([3]; protocol of Example C-2) is reported as 100 to 300 nM.

`COc1nc2c(Oc3ccc(NC(=O)c4c(C)nc(C)c(-c5ccc(F)cc5)c4O)cc3F)ccnc2cc1C(C)C` [Compound 592, N-[3-Fluoro-4-[(6-methoxy-7-propan-2-yl-1,5-naphthyridin-4-yl)oxy]phenyl]-5-(4-fluorophenyl)-4-hydroxy-2,6-dimethylpyridine-3-carboxamide] was tested, and the IC50 ([1]; protocol of Example D-2) was > 300 nM, the IC50 ([2]; protocol of Example B-2) was > 300 nM and the IC50 ([3]; protocol of Example C-2) was < 100 nM.
